Earlier results as cited in US20030152525A1, “Stable oral compositions comprising casein phosphopeptide complexes and fluoride” (The Procter & Gamble Company, priority 2002, published 2003).

Settings: solutions containing 0.1% w/v peptide, various pH, calcium and phosphate concentrations, constant ionic strength; as discussed in WO 98/40406

## Gln^59-Met-Glu-Ala-Glu-Ser(P)-Ile-Ser(P)-Ser(P)-Ser(P)-Glu-Glu-Ile-Val-Pro-Asn-Ser(P)-Val-Glu-Gln-Lys^79 [αs1 (59-79) [1]]
  calcium maximally bound per molecule of peptide: 24 per molecule
  phosphate maximally bound per molecule of peptide: 16 per molecule
